What all share (type): in vivo
Experiment [1] concerns Plutella xylostella (Diamond Back Moth). In words: Activity against Plutella xylostella, larvicide, feeding/residual contact activity, preventive (artificial diet MTP, Example B5). Conditions: 120 h, read-out: activity (larval mortality, antifeedant, growth regulation). As for the experimental part:
Activity Against Plutella xylostella (Diamond Back Moth)
(§1) (larvicide, feeding/residual contact activity, preventive)
24-well microtiter plate (MTP) with artificial diet is treated with test solutions by pipetting. After drying, the MTP's are infested with larvae (L2)(10-15 per well). After an incubation period of 5 days, samples are checked for larval mortality, antifeedant and growth regulation.

The subject of experiment [2] is Tetranychus urticae (Two-Spotted Spider Mite). In words: Activity against Tetranychus urticae, mixed population, feeding/residual contact activity, preventive (bean leaf discs, Example B4). Conditions: foliar, 192 h, 400 ppm, sprayed bean leaf discs, 8 days, mixed-age mites, read-out: activity (egg, larval and adult mortality). The text has this:
Activity Against Tetranychus urticae (Two-Spotted Spider Mite)
(§2) (mixed population, feeding/residual contact activity, preventive)
Bean leaf discs on agar in 24-well microtiter plates are sprayed with test solutions. After drying, the leaf discs are infested with mite populations of mixed ages. 8 days later, discs are checked for egg mortality, larval mortality, and adult mortality.

The test system of experiment [3] is Myzus persicae (Green Peach Aphid). In words: Activity against Myzus persicae, mixed population, feeding/residual contact activity, preventive (sunflower leaf discs, Example B1). Conditions: foliar, 144 h, 400 ppm, sprayed sunflower leaf discs, 6 days incubation, mixed-age aphids, read-out: activity (mortality). Here is the method:
(§3) Activity Against Myzus persicae (Green Peach Aphid)
as §2
Sunflower leaf discs are placed on agar in a 24-well microtiter plate and sprayed with test solutions. After drying, the leaf discs are infested with an aphid population of mixed ages. After an incubation period of 6 days, samples are checked for mortality and special effects (e.g. phytotoxicity).

Experiment [4] deals with Thrips tabaci (Onion Thrips). In words: Activity against Thrips tabaci, mixed population, feeding/residual contact activity, preventive (sunflower leaf discs, Example B3). Conditions: foliar, 144 h, sprayed sunflower leaf discs, 6 days incubation, mixed-age thrips. Here is the method:
Activity Against Thrips tabaci (Onion Thrips)
as §2
Sunflower leaf discs are placed on agar in a 24-well microtiter plate and sprayed with test solutions. After drying, the leaf discs are infested with a thrips population of mixed ages. After an incubation period of 6 days, samples are checked for mortality and special effects (e.g. phytotoxicity).

The test system of experiment [5] is Diabrotica balteata (Corn Root Worm). Put plainly: Activity against Diabrotica balteata, larvicide, feeding/residual contact activity, preventive (artificial diet MTP, Example B6). Conditions: 120 h, L2 larvae, 5 days incubation, read-out: activity (larval mortality, antifeedant, growth regulation). As for the experimental part:
Activity Against Diabrotica balteata (Corn Root Worm)
as §1
24-well microtiter plate (MTP) with artificial diet is treated with test solutions by pipetting. After drying, the MTP's are infested with larvae (L2)(6-10 per well). After an incubation period of 5 days, samples are checked for larval mortality, antifeedant and growth regulation.

Experiment [6] concerns Myzus persicae (Green Peach Aphid). Put plainly: Activity against Myzus persicae, mixed population, feeding activity (sucrose solution through Parafilm, Example B7). Conditions: 120 h, in sucrose solution, 5 days after infestation.
Description: as §3
(mixed population, feeding activity)
Test compounds are applied with a pipette into 24 well plates and mixed with a sucrose solution. The plates are closed with a stretched Parafilm. A plastic stencil with 24 holes is placed onto the plate and infested pea seedlings are placed directly on the Parafilm. The infested plate is closed with a gel blotting paper and another plastic stencil, and then turned upside down. 5 days after infestation the samples are checked for mortality.

[7] abbreviates: 400 ppm, artificial diet, L2 larvae, 5 days incubation.

Our source for the mortality values is patent publication US20130053385A1, “METHOD OF COMBATING AND CONTROLLING PESTS” (SYNGENTA LIMITED, priority 2009, published 2013).

The structures appear in SMILES notation. Like-named read-outs stand apart in the source and are kept apart here.

By mortality is commonly meant the share of the test organisms that died.

Take `Cc1cc(C)c(C2=C(OC(=O)C(C)(C)C)CC(CC3CCOCC3)C2=O)c(C)c1` (stereo not drawn) [Compound P5]: the mortality at 400 ppm in experiment [1] (setting [7]) was more than 80%.
Regarding `Cc1cc(C)c(C2=C(OC(=O)C(C)(C)C)CC(CC3CCOC3)C2=O)c(C)c1` (stereo not drawn) [Compound P7], the mortality at 400 ppm in experiment [2], in experiment [1] (setting [7]), in experiment [3] and in experiment [4] was more than 80% each time.
In turn, `Cc1cc(C)c(C2=C(OC(=O)C(C)C)CC(CC3CCOC3)C2=O)c(C)c1` (stereo not drawn) [Compound P13] came in with a mortality at 400 ppm in experiment [4] of more than 80%.
Same read-out and setting: the result for `Cc1cc(C)c(C2=C(OC(=O)C3CCCCC3)CC(CC3CCOC3)C2=O)c(C)c1` (stereo not drawn) [Compound P15] reads more than 80%.
Regarding `Cc1cc(C)c(C2=C(OC(=O)c3ccccc3)CC(CC3CCOC3)C2=O)c(C)c1` (stereo not drawn) [Compound P17], the mortality at 400 ppm in experiment [2], in experiment [3] and in experiment [4] was more than 80% throughout.
On to `COc1ccc(C(=O)OC2=C(c3c(C)cc(C)cc3C)C(=O)C(CC3CCOC3)C2)cc1` (stereo not drawn) [Compound P18], for which the mortality at 400 ppm in experiment [2] and in experiment [4] was more than 80% in each case.
With `CCCOC(=O)OC1=C(c2c(C)cc(C)cc2C)C(=O)C(CC2CCOC2)C1` (stereo not drawn) [Compound P20], the mortality at 400 ppm in experiment [1] (setting [7]) and in experiment [4] was more than 80% in each case.
Consider `Cc1cc(C)c(C2=C(OC(=O)OCC(C)C)CC(CC3CCOC3)C2=O)c(C)c1` (stereo not drawn) [Compound P23], for which the mortality at 400 ppm in experiment [2] and in experiment [4] was more than 80% throughout.
The compound `Cc1cc(C)c(C2=C(OC(=O)OCC(C)(C)C)CC(CC3CCOC3)C2=O)c(C)c1` (stereo not drawn) [Compound P24] registered a mortality at 400 ppm in experiment [4] of more than 80%.
On the same count and under the same terms, the result for `Cc1cc(C)c(C2=C(OC(=O)Oc3ccccc3)CC(CC3CCOC3)C2=O)c(C)c1` (stereo not drawn) [Compound P26] reads more than 80%; that for `CCS(=O)(=O)OC1=C(c2c(C)cc(C)cc2C)C(=O)C(CC2CCOC2)C1` (stereo not drawn) [Compound P27], more than 80%; that for `CCSC(=O)OC1=C(c2c(C)cc(C)cc2C)C(=O)C(CC2CCOC2)C1` (stereo not drawn) [Compound P30], more than 80%.
Regarding `Cc1cc(C)c(C2=C(OC(=O)C(C)(C)C)CC(CC3CCCOC3)C2=O)c(C)c1` (stereo not drawn) [Compound P37], the mortality at 400 ppm in experiment [2] and in experiment [1] (setting [7]) was more than 80% each time.
As for `Cc1cc(C)c(C2=C(OC(=O)OC(C)C)CC(CC3CCOCC3)C2=O)c(C)c1` (stereo not drawn) [Compound P43], the mortality at 400 ppm in experiment [4] was more than 80%.
On to `Cc1cc(C)c(C2=C(OC(=O)c3ccccc3)CC(CC3CCOCC3)C2=O)c(C)c1` (stereo not drawn) [Compound P44], for which the mortality at 400 ppm in experiment [2], in experiment [1] (setting [7]), in experiment [5], in experiment [3] and in experiment [4] was more than 80% each time.
`CON1CCC(CC2CC(OC(C)=O)=C(c3c(C)cc(C)cc3C)C2=O)CC1` (stereo not drawn) [Compound P50]: the mortality at 400 ppm in experiment [3] and in experiment [4] was more than 80% each time.
Regarding `CON1CCC(CC2CC(OC(=O)c3ccccc3)=C(c3c(C)cc(C)cc3C)C2=O)CC1` (stereo not drawn) [Compound P55], the mortality at 400 ppm in experiment [2] and in experiment [4] was more than 80% in each case.
Consider `CON1CCC(CC2CC(OC(=O)OC(C)C)=C(c3c(C)cc(C)cc3C)C2=O)CC1` (stereo not drawn) [Compound P56], for which the mortality at 400 ppm in experiment [2] and in experiment [4] was more than 80% each time.
Turning to `COc1ccc(C(=O)OC2=C(c3c(C)cc(C)cc3C)C(=O)CC2CC2CCOC2)cc1` (stereo not drawn) [Compound P71], the mortality at 400 ppm in experiment [2], in experiment [5] and in experiment [3] was more than 80% throughout.
Consider `Cc1cc(C)c(C2C(=O)CC(CC3CCOCC3)C2=O)c(C)c1` (stereo not drawn) [Compound T4], for which the mortality at 400 ppm in experiment [1] (setting [7]) and in experiment [4] was more than 80% throughout.
As for `Cc1cc(C)c(C2C(=O)CC(CC3CCOC3)C2=O)c(C)c1` (stereo not drawn) [Compound T5], the mortality at 400 ppm in experiment [1] (setting [7]), in experiment [3] and in experiment [4] was more than 80% in each case.
For `Cc1cc(C)c(C2C(=O)C/C(=C\C3CCOCC3)C2=O)c(C)c1` (stereo not drawn) [Compound T8], the mortality at 400 ppm in experiment [2], in experiment [1] (setting [7]), in experiment [3] and in experiment [4] was more than 80% in each case.
Regarding `Cc1cc(C)c(C2C(=O)C/C(=C\C3CCCOC3)C2=O)c(C)c1` (stereo not drawn) [Compound T14], the mortality at 400 ppm in experiment [2], in experiment [1] (setting [7]), in experiment [3] and in experiment [4] was more than 80% each time. The same compound gave a mortality at 25 ppm in experiment [6] of more than 80%.
Consider `Cc1cc(C)c(C2C(=O)CC(CC3CCCOC3)C2=O)c(C)c1` (stereo not drawn) [Compound T16], for which the mortality at 400 ppm in experiment [1] (setting [7]), in experiment [3] and in experiment [4] was more than 80% each time.
Consider `Cc1cc(C)c(C2C(=O)C/C(=C\C3CCOC3)C2=O)c(C)c1` (stereo not drawn) [Compound T17], for which the mortality at 400 ppm in experiment [2], in experiment [1] (setting [7]), in experiment [5], in experiment [3] and in experiment [4] was more than 80% each time.
As for `CON1CCC(CC2CC(=O)C(c3c(C)cc(C)cc3C)C2=O)CC1` (stereo not drawn) [Compound T23], the mortality at 400 ppm in experiment [3] and in experiment [4] was more than 80% throughout.
For `Cc1cc(C)c(C2C(=O)C/C(=C\C3CCN(S(C)(=O)=O)C3)C2=O)c(C)c1` (stereo not drawn) [Compound T31], the mortality at 400 ppm in experiment [2] and in experiment [1] (setting [7]) was more than 80% each time.
Consider `CCSC(=O)N1CCC(/C=C2\CC(=O)C(c3c(C)cc(C)cc3C)C2=O)C1` (stereo not drawn) [Compound T33], for which the mortality at 400 ppm in experiment [1] was more than 80%.
For `Cc1cc(C)c(C2C(=O)CC(CC3CCOC(C)(C)C3)C2=O)c(C)c1` (stereo not drawn) [Compound T39], the mortality at 400 ppm in experiment [2] and in experiment [5] was more than 80% throughout.
As for `Cc1cccc(C)c1C1C(=O)CC(CC2CCOCC2)C1=O` (stereo not drawn) [Compound T52], the mortality at 400 ppm in experiment [2], in experiment [3] and in experiment [4] was more than 80% in each case.
As to `Cc1cc(C)c(C2C(=O)C/C(=C\C3CCN(C(=O)OC(C)(C)C)CC3)C2=O)c(C)c1` (stereo not drawn) [Compound T54], the mortality at 400 ppm in experiment [2] and in experiment [5] was more than 80% each time.
For the compound `Cc1cc(-c2ccc(F)cc2)cc(C)c1C1C(=O)C/C(=C\C2CCOCC2)C1=O` (stereo not drawn) [Compound T61], the mortality at 400 ppm in experiment [2] and in experiment [3] was more than 80% in each case. In experiment [6], the mortality at 25 ppm was more than 80%.
For the compound `Cc1cc(-c2ccc(Cl)cc2)cc(C)c1C1C(=O)C/C(=C\C2CCOCC2)C1=O` (stereo not drawn) [Compound T62], the mortality at 400 ppm in experiment [2], in experiment [1] (setting [7]) and in experiment [3] was more than 80% in each case. This compound also came in with a mortality at 25 ppm in experiment [6] of more than 80%.
For `Cc1cc(-c2ccc(F)cc2)cc(C)c1C1C(=O)CC(CC2CCOCC2)C1=O` (stereo not drawn) [Compound T63], the mortality at 400 ppm in experiment [2] and in experiment [3] was more than 80% throughout. Besides, the mortality at 25 ppm in experiment [6] is more than 80%.
For `Cc1cc(C)c(C2C(=O)CC(CC3CCN(C(=O)c4cc(C)nn4C)CC3)C2=O)c(C)c1` (stereo not drawn) [Compound T121], the mortality at 400 ppm in experiment [1] (setting [7]) was more than 80%.
The same measure, in the same setting: to `Cc1cc(C)c(C2C(=O)CC(CC3C[C@@H]4O[C@H]3[C@@H]3C(=O)NC(=O)[C@@H]34)C2=O)c(C)c1` (stereo partly drawn) [Compound T127] belongs more than 80%.
With `Cc1cc(Br)cc(C)c1C1C(=O)CC(CC2CCOC2)C1=O` (stereo not drawn) [Compound T160], in experiment [5], the mortality at 400 ppm was more than 80%.
